Reference: patent US20260374782A1, “NEW COMPOUNDS, PROCESSES FOR PREPARING THE SAME AND THEIR USE AS DRUGS” (B&A ONCOMEDICAL, priority 2022, published 2026)

Assays:
NKCC1 = target: T1, NKCC1 (Homo sapiens, UniProt P55011); assay: NKCC1-mediated K+ influx (83Rb tracer uptake) in native HEK293 cells, hypertonic saline, 100 μM ouabain; format: cell-based; details: for inhibition at 2 µM / inhibition at 20 µM: HEK293, no drug = 1000, 20 μM bumetanide = 0; for inhibition at 2 µM: read-out: NKCC1 mediated flux inhibition at 2 μM (%); for inhibition at 20 µM: read-out: NKCC1 mediated flux inhibition at 20 μM (%)
T1 construct: endogenous in cells; host or cells: native HEK293 cells
T1 sequence (P55011 1-1212): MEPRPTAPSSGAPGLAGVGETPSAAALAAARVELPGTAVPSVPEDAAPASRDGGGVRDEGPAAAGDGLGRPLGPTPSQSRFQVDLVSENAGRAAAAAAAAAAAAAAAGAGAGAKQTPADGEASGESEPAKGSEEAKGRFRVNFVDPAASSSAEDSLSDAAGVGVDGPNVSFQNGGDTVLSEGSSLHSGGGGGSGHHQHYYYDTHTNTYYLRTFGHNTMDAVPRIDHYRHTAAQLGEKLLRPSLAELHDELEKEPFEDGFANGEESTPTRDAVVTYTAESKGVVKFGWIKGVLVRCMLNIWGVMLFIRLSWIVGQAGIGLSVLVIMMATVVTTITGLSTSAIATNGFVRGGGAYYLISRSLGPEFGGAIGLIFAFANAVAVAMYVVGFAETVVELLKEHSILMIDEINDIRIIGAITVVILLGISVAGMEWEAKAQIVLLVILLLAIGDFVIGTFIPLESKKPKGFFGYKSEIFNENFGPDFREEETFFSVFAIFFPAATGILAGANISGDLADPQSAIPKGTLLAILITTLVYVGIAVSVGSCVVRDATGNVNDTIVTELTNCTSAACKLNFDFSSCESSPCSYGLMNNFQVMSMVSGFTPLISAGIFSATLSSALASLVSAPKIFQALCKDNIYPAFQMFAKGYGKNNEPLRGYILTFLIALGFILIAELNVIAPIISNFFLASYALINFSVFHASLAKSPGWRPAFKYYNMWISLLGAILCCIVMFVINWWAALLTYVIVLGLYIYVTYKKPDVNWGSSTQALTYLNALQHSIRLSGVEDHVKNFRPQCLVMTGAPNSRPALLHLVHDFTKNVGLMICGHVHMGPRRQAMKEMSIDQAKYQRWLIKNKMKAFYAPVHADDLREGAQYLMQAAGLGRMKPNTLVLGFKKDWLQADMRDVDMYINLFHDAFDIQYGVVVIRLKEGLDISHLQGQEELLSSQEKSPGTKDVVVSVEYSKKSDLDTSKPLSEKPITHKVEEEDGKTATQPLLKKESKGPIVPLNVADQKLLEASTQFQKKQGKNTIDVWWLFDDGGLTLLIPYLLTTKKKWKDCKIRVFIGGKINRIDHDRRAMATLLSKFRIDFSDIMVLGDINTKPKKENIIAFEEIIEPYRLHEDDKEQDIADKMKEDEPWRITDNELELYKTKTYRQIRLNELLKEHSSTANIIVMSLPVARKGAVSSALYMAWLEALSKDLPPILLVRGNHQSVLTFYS
In short: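 Native cells in slightly hypertonic saline with 100 μM ouabain; 15 min preincubation then 15 min 83Rb uptake (0.25 μCi/mL), scintillation counting normalized to protein. Compounds at 2 μM and 20 μM; flux scaled 1000 (no drug) to 0 (20 μM bumetanide), triplicate dishes.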

NKCC1-KO HEK293 cells = assay: K+ influx (83Rb uptake) in NKCC1-KO HEK293 cells; format: cell-based, human
Procedure: A. Contribution of NKCC1 to K^+ influx in native HEK293 cells under isosmotic (basal) conditions. K^+ influx was measured in untreated cells (Cntr), cells exposed to 100 μM ouabain (ouab), 20 μM bumetanide (bum), or both. B. Signal separation between native HEK293 cells with and without 20 μM bumetanide. Cells were tested in a hypertonic saline and in the presence of 100 μM ouabain. These conditions became our standard conditions for drug testing. C. Absence of bumetanide-sensitive K^+ influx in A-NKCC1 HEK293 cells. Note that the K^+ influx was reduced to basal levels.
NKCC1 expression was eliminated from HEK293 cells using CRISPR/cas9. Cells were transfected with a vector expressing a cas9-EGFP fusion protein and a guide RNA specific to a NKCC1 sequence ([…]; SEQ ID NO: 1) located within exon 1. Two days post transfection, cells were FACS sorted and cells expressing EGFP and cas9 (green cells) were plated at 1 cell per well in 96 well plates. Cells were grown to confluence, duplicated, and tested for NKCC1 function using Tl+ (another congener of K^+) and a thallium sensitive fluorescent dye in the presence or absence of bumetanide.

[1] = cited from earlier work
NKCC2 = details: in words; cited from earlier work
[2] = Fragile X, Tuberous Sclerosis, Down syndrome, or Parkinson Disease; cited from earlier work

inhibition at 2 µM (NKCC1; 2 μM) [%] | inhibition at 20 µM (NKCC1) [%] | SMILES | further results
 |  | CCCCNc1cc(C(=O)O)cc(S(N)(=O)=O)c1Oc1ccccc1 [Bumetanide] | flux (normalized) (NKCC1; 2 μM, no drug flux=1000, 20 μM bumetanide flux=0, n=6): 171±21; effect on K+ influx in NKCC1-KO cells (NKCC1-KO HEK293 cells): no longer affected K^+ influx; brain levels lower than the plasma ([1]; brain vs plasma): 200-300 fold; blood brain barrier permeability ([1]; in words): quite impermeable; diuretic potency (NKCC2): high diuretic potency; attenuation of severity of disorders [2]: attenuation
30 to 50 | ≥ 75 | CCCCNc1cc(C(=O)O)cc(S(=N)(=O)N2CCCCCC2)c1Oc1ccccc1 (centres unmarked) [Compound 61, 3-(azepan-1-ylsulfonimidoyl)-5-(butylamino)-4-phenoxy-benzoic acid] | 
30 to 50 |  | CCCCNc1cc(C(=O)NC)cc(S(=N)(=O)Nc2ccccc2)c1Oc1ccccc1 (centres unmarked) [Compound 104, 3-(anilinosulfonimidoyl)-5-(butylamino)-N-methyl-4-phenoxy-] | 
50 to 75 | ≥ 75 | CCCCNc1cc(C(=O)O)cc(S(=N)(=O)NCc2cncnc2)c1Oc1ccccc1 (centres unmarked) [Compound 68, 3-(butylamino)-4-phenoxy-5-[(pyrimidin-5-ylmethylamino)sulfonimidoyl]benzoic acid] | 
50 to 75 | ≥ 75 | CCCCNc1cc(C(=O)O)cc(S(=N)(=O)N2Cc3ccccc3C2)c1Oc1ccccc1 (centres unmarked) [Compound 72, 3-(butylamino)-5-(isoindolin-2-ylsulfonimidoyl)-4-phenoxy-benzoic acid] | 
 | 30 to 50 | CCCCNc1cc(C(=O)O)cc(S(=N)(=O)NCC2CCOCC2)c1Oc1ccccc1 (centres unmarked) [Compound 63, 3-(butylamino)-4-phenoxy-5-[(tetrahydropyran-4-ylmethylamino)sulfonimidoyl]benzoic acid] | 
 | 50 to 75 | CCCCNc1cc(C(=O)OC)cc(S(=N)(=O)N(C)CC)c1Oc1ccccc1 (centres unmarked) [Compound 5, methyl 3-(butylamino)-5-[[ethyl(methyl)amino]sulfonimidoyl]-4-phenoxy-benzoate] | 
30 to 50 | 30 to 50 | CCCCNc1cc(C(=O)NCCOC)cc(S(=N)(=O)NC2CCOCC2)c1Oc1ccccc1 (centres unmarked) [Compound 122, 3-(butylamino)-N-(2-methoxyethyl)-4-phenoxy-5-[(tetrahydropyran-4-ylamino)sulfonimidoyl]benzamide] | 
10 to 30 | ≥ 75 | CCCCNc1cc(C(=O)O)cc(S(=N)(=O)NCCc2cccc(Cl)c2)c1Oc1ccccc1 (centres unmarked) [Compound 82, 3-(butylamino)-5-[[2-(3-chlorophenyl)ethylamino]sulfonimidoyl]-4-phenoxy-benzoic acid] | 
10 to 30 | 10 to 30 | CCCCNc1cc(C(=O)NCCOC)cc(S(=N)(=O)NCc2cccc(Cl)c2)c1Oc1ccccc1 (centres unmarked) [Compound 118, 3-(butylamino)-5-[[(3-chlorophenyl)methylamino]sulfonimidoyl]-N-(2-methoxyethyl)-4-phenoxy-benzamide] | 
10 to 30 | 10 to 30 | CCCCNc1cc(C(=O)OC)cc(S(=N)(=O)N(C)c2ccccc2)c1Oc1ccccc1 (centres unmarked) [Compound 14, methyl 3-(butylamino)-5-[(N-methylanilino)sulfonimidoyl]-4-phenoxy-benzoate] | 
